Results as given in PMC3119659, “Ligand Activation of the Prokaryotic Pentameric Ligand-Gated Ion Channel ELIC” (PLoS Biology, 2011).
“Also recorded” adds a separate entry of the source. Like-named read-outs stand apart in the source and are kept apart here.

Molecular target: T1, ELIC (Dickeya chrysanthemi, UniProt P0C7B7)
T1 construct: expressed in transfected cells; host or cells: Xenopus laevis oocytes (cRNA injection, pTLN vector)
Assay: cell-based
Type: cell-based, Erwinia chrysanthemi
Excerpt: To identify ligands that activate ELIC we have expressed the protein in Xenopus laevis oocytes and investigated the response to potential agonists by the two-electrode voltage-clamp technique. Based on the volume and chemical properties of the proposed ligand binding region and the presence of positively charged ions bound to this site, we reasoned that parts of the agonists might have a cationic character. […] Our library included different natural products such as amino acids and their derivatives, metabolites, and related synthetic substances (Figure S3A).
Constructs containing the gene of either the WT channel or point mutants preceded by the signal sequence of the chicken α7nAchR were cloned into the pTLN vector for expression in X. laevis oocytes. After linearization of the plasmid DNA by MluI, capped complementary RNA was transcribed with the mMessage mMachine kit (Ambion) and purified with the RNeasy kit (Qiagen). For expression, 1–50 ng of RNA was injected into defolliculated oocytes. Two-electrode voltage clamp measurements were performed one day after injection at 20°C (OC-725B, Warner Instrument Corp.). […] Cysteamine containing solutions were supplemented with 1 mM DTT.

[1] = ligand added to the extracellular solution, 10 mM, -60 mV, compared with 2 mM cysteamine
[2] = WT, pH 7.0, two-electrode voltage clamp, -60 mV, fit to Hill equation, read-out: EC50 of activation of ELIC
[3] = pH 7.0, averages and s.d. of six measurements

T1 sequence (P0C7B7 whole entry): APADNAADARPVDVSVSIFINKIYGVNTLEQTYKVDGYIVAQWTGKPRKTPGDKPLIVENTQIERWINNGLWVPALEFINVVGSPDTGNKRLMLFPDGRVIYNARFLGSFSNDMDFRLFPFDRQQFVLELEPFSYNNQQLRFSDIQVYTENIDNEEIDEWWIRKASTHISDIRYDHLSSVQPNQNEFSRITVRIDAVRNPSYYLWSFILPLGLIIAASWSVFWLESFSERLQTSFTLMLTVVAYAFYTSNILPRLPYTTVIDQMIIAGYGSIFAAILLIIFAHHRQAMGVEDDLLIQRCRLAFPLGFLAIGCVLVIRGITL

Row | Compound | activating current response of ELIC to the ligand [1] | activating current response of ELIC to the ligand | n (Hill coefficient) (WT, pH 7.0) | EC50 [2] [µM] | Imax/Imax cysteamine [3] | other results
1 | CCN [Ethylamine] | activate the channel | – | – | – | – | –
2 | NCCCCN [putrescine] | – | activate ELIC; also recorded: only observed at higher pH | – | – | – | EC50: 16000 µM; n (Hill coefficient) (pH 8): 2.4; n (Hill coefficient), concentration of monovalent putrescine (pH 8): 2.4; Imax/Imax cysteamine (pH 9): 1.03±0.07
3 | NCC(=O)O [glycine] | – | absent | – | – | – | –
4 | CC(=O)OCC[N+](C)(C)C [acetylcholine] | ineffective | – | – | – | – | –
5 | NCCCBr [bromopropylamine] | opening the channel | – | 3.9 | 1100 | 0.71±0.03 | –
6 | NCCCS [homocysteamine] | small | – | – | – | – | –
7 | NCCC(=O)O [beta-alanine] | – | absent | – | – | – | –
8 | NCCBr [bromoethylamine] | opening the channel | – | 3.1 | 885 | 0.94±0.04 | –
9 | CCCN [aminopropane] | activate the channel | – | 3.0 | 446 | 0.99±0.02 | –
